In patent publication US9873680B2 (Gilead Sciences, Inc., priority 2014, dated 2018):
Counter-ions that a name gives are not always drawn. Like-named read-outs stand apart in the source and are kept apart here.

What was measured:
[1] = Test B: Cytotoxicity Assay; assay type: cell-based; details: human, uninfected MT-4 cells, CellTiter-Glo
Protocol: Test B: Cytotoxicity Assay Compound cytotoxicity and the corresponding CC50 values was determined using the same protocol as described in the antiviral assay (Test A) except that uninfected cells were used.

HIV-IIIb = assay: Test A: Antiviral Assay in MT4 Cells; assay type: cell-based, HIV-1; details: for inhibition at 2 µM: 2 μM drug concentration, read-out: Response at 2 μM (percent inhibition of virus-induced cell killing)
Protocol: Test A: Antiviral Assay in MT4 Cells
MT-4 cells were next mixed with HIV-IIIb at an m.o.i of 0.003 for 1 hour, after which time 35 μL of virus/cell mixture (2000 cells) was immediately added to each well containing 40 μL of diluted compound. The plates were then incubated at 37° C. for 5 days. After 5 days of incubation, 25 μl of 2× concentrated CellTiter-Glo™ Reagent (catalog #G7571, Promega Biosciences, Inc., Madison, Wis.) was added to each well containing MT-4 cells. Cell lysis was carried out by incubating at room temperature for 10 min and then chemiluminescence was read.

[2] = Human immunodeficiency virus 1, MT4, 120 h, 0.2 μM drug concentration, MT-4 cells infected with HIV-IIIb, 5 days, values normalized to 100%, average over time, read-out: % inhibition at 0.2 μM (percent inhibition of virus-induced cell killing)
[3] = Human immunodeficiency virus 1, IIIB, MT4, 0.2 μM drug concentration, comparison with previously published compounds, read-out: Response at 0.2 μM (percent inhibition of virus-induced cell killing)
[4] = Human immunodeficiency virus 1, IIIB, MT4, comparison with previously published compounds
[5] = Human immunodeficiency virus 1, IIIB, MT4, 120 h, read-out: % inhibition at 0.2 μM (percent inhibition of virus-induced cell killing)

SMILES	CC50 at 5 days [1]	inhibition at 0.2 µM (HIV-IIIb; [2])	inhibition at 0.2 µM (HIV-IIIb; [3])	inhibition at 2 µM (HIV-IIIb; [4])	inhibition at 0.2 µM (HIV-IIIb; [5])
O=C(Cn1nc(C(F)F)c2c1C(F)(F)CCC2(F)F)N[C@@H](Cc1cc(F)cc(F)c1)c1nc(C#Cc2cncnc2)ccc1-c1ccc2c(c1)C(=O)NC2 [Compound 1J, (S)-2-(3-(difluoromethyl)-4,4,7,7-tetrafluoro-4,5,6,7-tetrahydro-1H-indazol-1-yl)-N-(2-(3,5-difluorophenyl)-1-(3-(3-oxoisoindolin-5-yl)-6-(pyrimidin-5-ylethynyl)pyridin-2-yl)ethyl)acetamidehydrochloride]	> 53.2 µM	81%			
O=C(Cn1nc(C(F)F)c2c1C(F)(F)CCC2(F)F)N[C@@H](Cc1cc(F)cc(F)c1)c1ncc(C#CC2CC2)cc1-c1ccc2c(c1)C(=O)NC2 [Compound 2G, (S)—N-(1-(5-(cyclopropylethynyl)-3-(3-oxoisoindolin-5-yl)pyridin-2-yl)-2-(3,5-difluorophenyl)ethyl)-2-(3-(difluoromethyl)-4,4,7,7-tetrafluoro-4,5,6,7-tetrahydro-1H-indazol-1-yl)acetamide]	38.4 µM	0%	0%	6%	
Cc1cc2ncn(CC(=O)N[C@@H](Cc3cc(F)cc(F)c3)c3nc(C#CC4(O)CCOCC4)ccc3-c3ccc4n[nH]c(=O)n4c3C)c2cc1C [Compound 3D, (S)—N-(2-(3,5-difluorophenyl)-1-(6-((4-hydroxytetrahydro-2H-pyran-4-yl)ethynyl)-3-(5-methyl-3-oxo-2,3-dihydro-[1,2,4]triazolo[4,3-a]pyridin-6-yl)pyridin-2-yl)ethyl)-2-(5,6-dimethyl-1H-benzo[d]imidazol-1-yl)acetamide]	31.6 µM	91%			
O=C(Cn1nc(C(F)F)c2c1C(F)(F)CCC2(F)F)N[C@@H](Cc1cc(F)cc(F)c1)c1nc(C#Cc2cnc3[nH]ccc3c2)ccc1-c1cnc2[nH]ccc2c1 [Compound 4C, (S)—N-(1-(6-((1H-pyrrolo[2,3-b]pyridin-5-yl)ethynyl)-3-(1H-pyrrolo[2,3-b]pyridin-5-yl)pyridin-2-yl)-2-(3,5-difluorophenyl)ethyl)-2-(3-(difluoromethyl)-4,4,7,7-tetrafluoro-4,5,6,7-tetrahydro-1H-indazol-1-yl)acetamide]	1.27 µM	0%			
O=C(Cn1nc(C(F)F)c2c1C(F)(F)CCC2(F)F)N[C@@H](Cc1cc(F)cc(F)c1)c1nc(C#Cc2ccc3[nH]c(=O)ccc3c2)ccc1-c1cnc2[nH]ccc2c1 [Compound 5, (S)-2-(3-(difluoromethyl)-4,4,7,7-tetrafluoro-4,5,6,7-tetrahydro-1H-indazol-1-yl)-N-(2-(3,5-difluorophenyl)-1-(6-((2-oxo-1,2-dihydroquinolin-6-yl)ethynyl)-3-(1H-pyrrolo[2,3-b]pyridin-5-yl)pyridin-2-yl)ethyl)acetamide]	> 53.2 µM	5%			
O=C(Cn1nc(C(F)F)c2c1C(F)(F)CCC2(F)F)N[C@@H](Cc1cc(F)cc(F)c1)c1nc(C#Cc2cncnc2)ccc1-c1ccc2c(c1)C(=O)NC21CC1 [Compound 6, (S)-2-(3-(difluoromethyl)-4,4,7,7-tetrafluoro-4,5,6,7-tetrahydro-1H-indazol-1-yl)-N-(2-(3,5-difluorophenyl)-1-(3-(3′-oxospiro[cyclopropane-1,1′-isoindolin]-5′-yl)-6-(pyrimidin-5-ylethynyl)pyridin-2-yl)ethyl)acetamide]	1.66 µM	0%			
O=C(Cn1nc(C(F)F)c2c1C(F)(F)CCC2(F)F)N[C@@H](Cc1cc(F)cc(F)c1)c1nc(C#Cc2cncnc2)ncc1-c1ccc2c(c1)C(=O)NC2 [Compound 7H]	0.534 µM				94%
O=C(Cn1nc(C(F)F)c2c1C(F)(F)CCC2(F)F)N[C@@H](Cc1cc(F)cc(F)c1)c1nc(C#Cc2ccccc2)ncc1-c1ccc2c(c1)C(=O)NC2 [Compound 8, (S)-2-(3-(difluoromethyl)-4,4,7,7-tetrafluoro-4,5,6,7-tetrahydro-1H-indazol-1-yl)-N-(2-(3,5-difluorophenyl)-1-(5-(3-oxoisoindolin-5-yl)-2-(phenylethynyl)pyrimidin-4-yl)ethyl)acetamide]	> 53.2 µM				102%
N#Cc1ccc(C#Cc2ccc(-c3ccc4c(c3)C(=O)NC4)c([C@H](Cc3cc(F)cc(F)c3)NC(=O)Cn3nc(C(F)(F)F)c4c3C(F)(F)[C@@H]3C[C@H]43)n2)cc1 [Compound 9, N—((S)-1-(6-((4-cyanophenyl)ethynyl)-3-(3-oxoisoindolin-5-yl)pyridin-2-yl)-2-(3,5-difluorophenyl)ethyl)-2-((3bS,4aR)-5,5-difluoro-3-(trifluromethyl)-3b,4,4a,5-tetrahydro-1H-cyclopropa[3,4]cyclopenta[1,2-c]pyrazol-1-yl)acetamide]	> 53.2 µM	25%			
COc1ccc(C#Cc2ccc(-c3ccc4c(c3)C(=O)NC4)c([C@H](Cc3cc(F)cc(F)c3)NC(=O)Cn3nc(C(F)(F)F)c4c3C(F)(F)[C@@H]3C[C@H]43)n2)cn1 [Compound 10C, 2-((3bS,4aR)-5,5-difluoro-3-(trifluoromethyl)-3b,4,4a,5-tetrahydro-1H-cyclopropa[3,4]cyclopenta[1,2-c]pyrazol-1-yl)-N—((S)-2-(3,5-difluorophenyl)-1-(6-((6-methoxypyridin-3-yl)ethynyl)-3-(3-oxoisoindolin-5-yl)pyridin-2-yl)ethyl)acetamide]	> 51.9 µM	21%			
Cc1cc(C#Cc2ncc(-c3ccc4c(c3)C(=O)NC4)c([C@H](Cc3cc(F)cc(F)c3)NC(=O)Cn3nc(C(F)F)c4c3C(F)(F)CCC4(F)F)n2)ccn1 [Compound 11, (S)-2-(3-(difluoromethyl)-4,4,7,7-tetrafluoro-4,5,6,7-tetrahydro-1H-indazol-1-yl)-N-(2-(3,5-difluorophenyl)-1-(2-((2-methylpyridin-4-yl)ethynyl)-5-(3-oxoisoindolin-5-yl)pyrimidin-4-yl)ethyl)acetamide]	0.761 µM	69%			
O=C(Cn1nc(C(F)(F)F)c2c1C(F)(F)[C@@H]1C[C@H]21)N[C@@H](Cc1cc(F)cc(F)c1)c1nc(C#Cc2ccc(=O)[nH]c2)ccc1-c1ccc2c(c1)C(=O)NC2 [Compound 12, 2-((3bS,4aR)-5,5-difluoro-3-(trifluoromethyl)-3b,4,4a,5-tetrahydro-1H-cyclopropa[3,4]cyclopenta[1,2-c]pyrazol-1-yl)-N—((S)-2-(3,5-difluorophenyl)-1-(6-((6-oxo-1,6-dihydropyridin-3-yl)ethynyl)-3-(3-oxoisoindolin-5-yl)pyridin-2-yl)ethyl)acetamide]	7.7 µM	70%			
CC(C)(C)OC(=O)N1CCCC1c1ncc(C#Cc2ccc(-c3ccc4c(c3)C(=O)NC4)c([C@H](Cc3cc(F)cc(F)c3)NC(=O)Cn3nc(C(F)(F)F)c4c3C(F)(F)[C@@H]3C[C@H]43)n2)[nH]1 (stereo partly drawn) [Compound 13C, tert-butyl 2-(5-((6-((S)-1-(2-((3bS,4aR)-5,5-difluoro-3-(trifluoromethyl)-3b,4,4a,5-tetrahydro-1H-cyclopropa[3,4]cyclopenta[1,2-c]pyrazol-1-yl)acetamido)-2-(3,5-difluorophenyl)ethyl)-5-(3-oxoisoindolin-5-yl)pyridin-2-yl)ethynyl)-1H-imidazol-2-yl)pyrrolidine-1-carboxylate]	> 53.2 µM	87%			
CN(C)c1ccc(C#Cc2ccc(-c3ccc4c(c3)C(=O)NC4)c([C@H](Cc3cc(F)cc(F)c3)NC(=O)Cn3nc(C(F)(F)F)c4c3C(F)(F)[C@@H]3C[C@H]43)n2)cc1 [Compound 14, 2-((3bS,4aR)-5,5-difluoro-3-(trifluoromethyl)-3b,4,4a,5-tetrahydro-1H-cyclopropa[3,4]cyclopenta[1,2-c]pyrazol-1-yl)-N—((S)-2-(3,5-difluorophenyl)-1-(6-((4-(dimethylamino)phenyl)ethynyl)-3-(3-oxoisoindolin-5-yl)pyridin-2-yl)ethyl)acetamide]	> 53.2 µM	1%			
CC(C)(O)C#Cc1ccc(-c2ccc(F)c(C(N)=O)c2)c([C@H](Cc2cc(F)cc(F)c2)NC(=O)Cn2nc(C(F)(F)F)c3c2C(F)(F)[C@@H]2C[C@H]32)n1 [Compound 18, reference compound]			96%	96%	
O=C(Cc1c[nH]c2ccc(O)cc12)N[C@@H](Cc1cc(F)cc(F)c1)c1ncccc1C#CC1CC1 [Compound 53, reference compound]			0%	33%	
Cn1nc(NS(C)(=O)=O)c2c(Cl)ccc(-c3ccc(C#CC4(O)CC(F)(F)C4)nc3[C@H](Cc3cc(F)cc(F)c3)NC(=O)Cn3nc(C(F)F)c4c3C(F)(F)[C@@H]3C[C@H]43)c21 [Compound 95E, N—((S)-1-(3-(4-chloro-1-methyl-3-(methylsulfonamido)-1H-indazol-7-yl)-6-((3,3-difluoro-1-hydroxycyclobutyl)ethynyl)pyridin-2-yl)-2-(3,5-difluorophenyl)ethyl)-2-((3bS,4aR)-3-(difluoromethyl)-5,5-difluoro-3b,4,4a,5-tetrahydro-1H-cyclopropa[3,4]cyclopenta[1,2-c]pyrazol-1-yl)acetamide]					96%
